Laboratory results published in ChEMBL document CHEMBL5543083, “3,5-Disubstituted-thiazolidine-2,4-dione hybrids as antidiabetic agents: Design, synthesis, in-vitro and In vivo evaluation” (Eur J Med Chem, 2024).
Converted amounts (≈) assume the structure as drawn. The source made the active and inactive calls. No cut-off for these calls is given here.

Tests used:
[1] = Toxicity in streptozotocin-induced Wistar rat assessed as morphological changes in pancrease at 10 mg/kg, po measured up to 35 days; type: organism-based; details: in vivo, 840 h, time < 35 day
Alpha-amylase = molecular target: T1, Alpha-amylase (Sus scrofa domesticus, UniProt Q7M328); assay: Inhibition of porcine pancreatic Alpha-amylase using starch as substrate preincubated for 10 mins followed by substrate addition and measured after 15 mins by Bio-rad microplate reader analysis; details: read-out: IC50
T1 sequence (Q7M328 whole entry): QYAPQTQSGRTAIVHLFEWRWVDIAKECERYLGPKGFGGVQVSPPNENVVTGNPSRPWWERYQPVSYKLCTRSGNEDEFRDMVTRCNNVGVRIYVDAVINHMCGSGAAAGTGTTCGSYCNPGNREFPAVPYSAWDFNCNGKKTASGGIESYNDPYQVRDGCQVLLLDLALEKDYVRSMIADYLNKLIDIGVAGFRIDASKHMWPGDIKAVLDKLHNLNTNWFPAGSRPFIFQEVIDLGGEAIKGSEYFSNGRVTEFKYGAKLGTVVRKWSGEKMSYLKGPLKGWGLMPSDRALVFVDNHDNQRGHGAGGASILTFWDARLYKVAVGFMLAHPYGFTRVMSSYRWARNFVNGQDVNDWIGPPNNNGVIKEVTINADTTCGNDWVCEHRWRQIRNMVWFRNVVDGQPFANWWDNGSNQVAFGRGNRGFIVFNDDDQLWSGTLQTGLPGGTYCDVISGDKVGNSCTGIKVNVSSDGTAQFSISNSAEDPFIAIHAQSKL

Rattus norvegicus [2] = assay: Antidiabetic activity against streptozotocin-induced Wistar rat assessed as decrease in blood glucose level at 10 mg/kg, po measured at 30 mins by oral glucose test; type: functional, organism-based
[3] = Toxicity in streptozotocin-induced Wistar rat assessed as morphological changes in kidney at 10 mg/kg, po measured up to 35 days; type: organism-based; details: in vivo, 840 h, time < 35 day
PANC-1 [4] = assay: Cytotoxicity against human PANC-1 cells assessed as inhibition of cell growth; type: functional, cell-based; details: Homo sapiens, PANC-1; read-out: IC50
Rattus norvegicus [5] = assay: Antidiabetic activity against streptozotocin-induced Wistar rat assessed as decrease in HDL level at 10 mg/kg, po measured upto 35 days; type: functional, organism-based; details: time <= 35.0 day
[6] = Toxicity in Wistar rat assessed as decrease in body weight at 10 mg/kg, po measured on day 35; type: organism-based; details: in vivo, 840 h, time 35 day
Rattus norvegicus [7] = assay: Antidiabetic activity against streptozotocin-induced Wistar rat assessed as effect on glutathione level at 10 mg/kg, po measured upto 35 days; type: functional, organism-based; details: time <= 35.0 day
Rattus norvegicus [8] = assay: Antidiabetic activity against streptozotocin-induced Wistar rat assessed as effect on blood glucose level at 10 mg/kg, po measured on day 1; type: functional, organism-based; details: time 1.0 day
[9] = Antioxidant activity assessed as DPPH radical scavenging activity measured for 30 mins by spectrophotometric analysis; type: functional; details: read-out: IC50
Rattus norvegicus [10] = assay: Antidiabetic activity against Wistar rat assessed as effect on glutathione level at 10 mg/kg, po measured upto 35 days; type: functional, organism-based; details: time <= 35.0 day
Rattus norvegicus [11] = assay: Antidiabetic activity against streptozotocin-induced Wistar rat assessed as change in blood urea nitrogen level at 10 mg/kg, po measured upto 35 days; type: functional, organism-based; details: time <= 35.0 day
[12] = Toxicity in Wistar rat assessed as decrease in body weight at 10 mg/kg, po measured on day 14; type: organism-based; details: in vivo, 336 h, time 14 day
Rattus norvegicus [13] = assay: Antidiabetic activity against streptozotocin-induced Wistar rat assessed as decrease in SOD level at 10 mg/kg, po measured upto 35 days; type: functional, organism-based; details: time <= 35.0 day
[14] = Toxicity in streptozotocin-induced Wistar rat assessed as decrease in dilation of renal tubules in kidney at 10 mg/kg, po measured up to 35 days; type: organism-based; details: in vivo, 840 h, time < 35 day
Rattus norvegicus [15] = assay: Antidiabetic activity against streptozotocin-induced Wistar rat assessed as increase in serum ALP level at 10 mg/kg, po measured upto 35 days; type: functional, organism-based; details: time <= 35.0 day
Rattus norvegicus [16] = assay: Antidiabetic activity against Wistar rat assessed as decrease in total cholesterol level at 10 mg/kg, po measured upto 35 days; type: functional, organism-based; details: time <= 35.0 day
[17] = Toxicity in streptozotocin-induced Wistar rat assessed as decrease in basophil count at 10 mg/kg, po measured up to 35 days; type: organism-based; details: in vivo, 840 h, time < 35 day
Rattus norvegicus [18] = assay: Antidiabetic activity against streptozotocin-induced Wistar rat assessed as increase in TNF-alpha level in Pancreas at 10 mg/kg, po measured upto 35 days; type: functional, organism-based; details: time <= 35.0 day
Rattus norvegicus [19] = assay: Antidiabetic activity against streptozotocin-induced Wistar rat assessed as change in serum SGPT level at 10 mg/kg, po measured upto 35 days; type: functional, organism-based; details: time <= 35.0 day
[20] = Toxicity in streptozotocin-induced Wistar rat assessed as changes in organ to body weight ratio at 10 mg/kg, po measured up to 35 days; type: organism-based; details: in vivo, 840 h, time < 35 day
Rattus norvegicus [21] = assay: Antidiabetic activity against streptozotocin-induced Wistar rat assessed as effect on blood glucose level at 10 mg/kg, po measured on day 4; type: functional, organism-based; details: time 4.0 day
[22] = Toxicity in streptozotocin-induced Wistar rat assessed as decrease in tubular necrosis in kidney at 10 mg/kg, po measured up to 35 days; type: organism-based; details: in vivo, 840 h, time < 35 day
Rattus norvegicus [23] = assay: Antidiabetic activity against streptozotocin-induced Wistar rat assessed as increase in serum amylase level at 10 mg/kg, po measured upto 35 days by ELISA analysis; type: functional, organism-based; details: time <= 35.0 day
Rattus norvegicus [24] = assay: Antidiabetic activity against streptozotocin-induced Wistar rat assessed as increase in PPAR-gamma level at 10 mg/kg, po measured upto 35 days by ELISA analysis; type: functional, organism-based; details: time <= 35.0 day
Rattus norvegicus [25] = assay: Antidiabetic activity against streptozotocin-induced Wistar rat assessed as decrease in MDA level at 10 mg/kg, po measured upto 35 days; type: functional, organism-based; details: time <= 35.0 day
Alpha-glucosidase = Alpha-glucosidase (Saccharomyces cerevisiae S288c, UniProt P53341+P38158+P07265); assay: Inhibition of yeast Alpha glucosidase 4-nitrophenyl-alpha-D-glucopyranoside incubated for 15 to 20 mins by Bio-rad microplate reader analysis; type: protein assay
[26] = Toxicity in streptozotocin-induced Wistar rat assessed as change in blood lymphocyte count at 10 mg/kg, po measured up to 35 days; type: organism-based; details: in vivo, 840 h, time < 35 day
Rattus norvegicus [27] = assay: Antidiabetic activity against streptozotocin-induced Wistar rat assessed as increase in IL1-beta level in Pancreas at 10 mg/kg, po measured upto 35 days; type: functional, organism-based; details: time <= 35.0 day
Rattus norvegicus [28] = assay: Antidiabetic activity against Wistar rat assessed as increase in serum creatine level at 10 mg/kg, po measured upto 35 days; type: functional, organism-based; details: time <= 35.0 day
PANC-1 [29] = assay: Induction of ROS production in high glucose-induced human PANC-1 cells assessed as maximum fluorescence intensity at 10 uM incubated for 30 mins DCFDA-staining based flow cytometry analysis (reference value: 15.09); type: functional; details: 0.5 h
Rattus norvegicus [30] = assay: Antidiabetic activity against streptozotocin-induced Wistar rat assessed as decrease in triglyceride level at 10 mg/kg, po measured upto 35 days; type: functional, organism-based; details: time <= 35.0 day
Rattus norvegicus [31] = assay: Antidiabetic activity against streptozotocin-induced Wistar rat assessed as change in serum SGOT level at 10 mg/kg, po measured upto 35 days; type: functional, organism-based; details: time <= 35.0 day
[32] = Toxicity in streptozotocin-induced Wistar rat assessed as decrease in eosinophil count at 10 mg/kg, po measured up to 35 days; type: organism-based; details: in vivo, 840 h, time < 35 day
Rattus norvegicus [33] = assay: Antidiabetic activity against streptozotocin-induced Wistar rat assessed as decrease in blood glucose level at 10 mg/kg, po measured at 60 mins by oral glucose test; type: functional, organism-based
[34] = Toxicity in streptozotocin-induced Wistar rat assessed as morphological changes in liver at 10 mg/kg, po measured up to 35 days; type: organism-based; details: in vivo, 840 h, time < 35 day
[35] = Antioxidant activity assessed as DPPH radical scavenging activity; type: functional
Alpha amylase = molecular target: T2, Alpha amylase (Homo sapiens, UniProt P0DUB6); assay: Inhibition of Alpha-amylase (unknown origin); type: protein assay
T2 sequence (P0DUB6 whole entry): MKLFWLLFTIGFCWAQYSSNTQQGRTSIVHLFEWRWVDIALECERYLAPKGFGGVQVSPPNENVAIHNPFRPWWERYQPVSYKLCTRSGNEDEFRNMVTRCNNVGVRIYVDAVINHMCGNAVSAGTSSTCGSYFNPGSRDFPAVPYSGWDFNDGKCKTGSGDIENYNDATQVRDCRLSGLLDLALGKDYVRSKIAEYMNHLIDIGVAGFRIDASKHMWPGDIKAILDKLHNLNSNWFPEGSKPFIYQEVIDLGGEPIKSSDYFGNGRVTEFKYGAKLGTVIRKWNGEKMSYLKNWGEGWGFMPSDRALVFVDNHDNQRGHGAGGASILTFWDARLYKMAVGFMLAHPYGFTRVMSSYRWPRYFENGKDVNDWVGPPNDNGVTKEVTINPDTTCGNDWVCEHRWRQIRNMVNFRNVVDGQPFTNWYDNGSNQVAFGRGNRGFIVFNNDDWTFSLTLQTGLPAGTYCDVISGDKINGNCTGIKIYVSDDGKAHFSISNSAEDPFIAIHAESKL

Rattus norvegicus [36] = assay: Antidiabetic activity against streptozotocin-induced Wistar rat assessed as increase in serum creatine level at 10 mg/kg, po measured upto 35 days; type: functional, organism-based; details: time <= 35.0 day
Rattus norvegicus [37] = assay: Antidiabetic activity against streptozotocin-induced Wistar rat assessed as change in uric acid level at 10 mg/kg, po measured upto 35 days; type: functional, organism-based; details: time <= 35.0 day
Rattus norvegicus [38] = assay: Antidiabetic activity against streptozotocin-induced Wistar rat assessed as effect on serum catalase level at 10 mg/kg, po measured upto 35 days; type: functional, organism-based; details: time <= 35.0 day
Rattus norvegicus [39] = assay: Antidiabetic activity against streptozotocin-induced Wistar rat assessed as change in BUN level at 10 mg/kg, po measured upto 35 days; type: functional, organism-based; details: time <= 35.0 day
[40] = Toxicity in streptozotocin-induced Wistar rat assessed as decrease in glomeruli shrinkage in kidney at 10 mg/kg, po measured up to 35 days; type: organism-based; details: in vivo, 840 h, time < 35 day

SMILES	Activity [1]	IC50 (Alpha-amylase)	Activity (Rattus norvegicus [2])	Activity [3]	IC50 (PANC-1 [4])	Activity (Rattus norvegicus [5])	Activity [6]	Activity (Rattus norvegicus [7])	Activity (Rattus norvegicus [8])	IC50 [9]	Activity [12]	Activity (Rattus norvegicus [15])	Activity (Rattus norvegicus [18])	Activity (Rattus norvegicus [19])	Activity (Rattus norvegicus [21])	IC50 (Alpha-glucosidase)	Activity (Rattus norvegicus [27])	Flu intensity (PANC-1 [29])	Activity (Rattus norvegicus [31])	Activity (Rattus norvegicus [33])	also measured
CCOc1cc(/C=C2\SC(=O)N(Cc3cccc([N+](=O)[O-])c3)C2=O)ccc1O	Non-Toxic	10.2 µM	Active	Non-Toxic	207 µM	Active	Toxic	inactive	Active	14.9 µM	Non-Toxic	Active	Active	Active	Active	10.33 µM	Active	1324	Active	Active	Activity (Rattus norvegicus [10]): Active; Activity (Rattus norvegicus [11]): Active; Activity (Rattus norvegicus [13]): Active; Activity [14]: Non-Toxic; Activity (Rattus norvegicus [16]): Active; Activity [17]: Non-Toxic; Activity [20]: Non-Toxic; Activity [22]: Non-Toxic; Activity (Rattus norvegicus [23]): Active; Activity (Rattus norvegicus [24]): Active; Activity (Rattus norvegicus [25]): Active; Activity [26]: Non-Toxic; Activity (Rattus norvegicus [28]): Active; Activity (Rattus norvegicus [30]): Active; Activity [32]: Non-Toxic; Activity [34]: Non-Toxic
O=C(O)CN1C(=O)S/C(=C\c2ccc3c(c2)OCO3)C1=O																					IC50 [35]: 10.78 µg/mL (≈ 35.1 µM); IC50 (Alpha amylase): 10.26 µg/mL (≈ 33.4 µM)
O=C1S/C(=C\c2ccc(Cl)cc2Cl)C(=O)N1Cc1cccc([N+](=O)[O-])c1	Non-Toxic	24.1 µM	Active		152 µM				Active	23.2 µM	Non-Toxic	Active	Active	inactive	Active	20.94 µM	Active	1474	inactive	Active	Activity (Rattus norvegicus [36]): Active; Activity (Rattus norvegicus [23]): Active; Activity (Rattus norvegicus [37]): Active; Activity (Rattus norvegicus [38]): Active; Activity [34]: Non-Toxic
O=C1S/C(=C\c2ccc(Br)cc2)C(=O)N1Cc1cccc([N+](=O)[O-])c1	Non-Toxic	23.9 µM		Non-Toxic	62.2 µM	Active	Toxic	inactive	Active	23.3 µM	Non-Toxic	Active	Active	Active	Active	20.02 µM	Active	1514	Active	Active	Activity (Rattus norvegicus [10]): Active; Activity (Rattus norvegicus [11]): Active; Activity (Rattus norvegicus [13]): Active; Activity [14]: Non-Toxic; Activity (Rattus norvegicus [16]): Active; Activity [17]: Non-Toxic; Activity [20]: Non-Toxic; Activity [22]: Non-Toxic; Activity (Rattus norvegicus [24]): Active; Activity (Rattus norvegicus [25]): Active; Activity (Rattus norvegicus [39]): Active; Activity [40]: Non-Toxic; Activity [26]: Non-Toxic; Activity (Rattus norvegicus [28]): Active; Activity (Rattus norvegicus [30]): Active; Activity [32]: Non-Toxic
